Measurements published in article PMC4880976, “Pharmacologic rationale for the NK1R antagonist, aprepitant as adjunctive therapy in HIV” (Journal of Translational Medicine, 2016).
“Also recorded” adds a separate entry of the source. Read-outs that look alike come from different tables or passages of the source.

Assays:
HIV-1 Bal = assay: HIV infection of monocyte-derived macrophages (MDM) ex vivo, HIV gag mRNA by real time RT-PCR; assay type: cell-based
Procedure: Blood samples were collected from the antecubital vein and monocytes were isolated as described below.
For HIV infectivity experiments PBMC were isolated from freshly collected blood samples using Ficoll-Paque (GE Healthcare, Uppsala, Sweden) gradient. Monocytes were purified by adhesion as described [26, 27] and cultured in 48-well plates at a density of 0.25 × 10^6/0.5 ml/well in DMEM supplemented with 10 % FBS for 7 days before HIV-1 infection. Macrophages from each subject were exposed to four experimental conditions (none, 1, 5 and 10 µM of aprepitant). 7-day-cultured MDM were incubated with aprepitant for 2 h before infection with HIV-1 Bal (NIH AIDS Reagent Program), 5 ng/well based on p24 antigen assay, corresponding to a MOI of 0.02 determined using MAGI cells expressing CD4 and CCR5 (NIH AIDS Reagent Program). Cells were incubated with virus overnight, and then extensively washed to remove unbound virus. The culture medium and the aprepitant were replaced twice weekly. At day 7 post HIV infection, cellular RNA was extracted from the MDM for assessment of HIV gag mRNA expression using real time RT-PCR assays.
Total RNA was extracted from MDM cells using RNeasy kit (Qiagen), and the potential DNA contamination was eliminated by on-column DNase digestion as instructed by the manufacturer (Qiagen). Total RNA (1 µg) was reverse transcribed using AffinityScript QPCR cDNA Synthesis kit ([sequence], Cedar Creek, TX) with random primer as instructed by the manufacture. 1 µl of the resulting cDNA was used as a template for real-time PCR amplification. […] Corresponding fragments of assayed genes cloned in pGEM-T vector (Promega) were used to generate standard curves.
Following differentiation for 7 days MDM were infected with HIV Bal. Macrophages from each subject were exposed to all four experimental conditions as indicated (1, 5 and 10 μM concentrations of aprepitant). Control, HIV infected MDM were treated with aprepitant vehicle, 0.001 % DMSO. RNA was collected 7 days after infection and assayed for expression of HIV GAG by real time RT PCR using the GAPDH housekeeping gene for normalization. GAG expression in control (non-treated) cultures were designated as 100 %; *p < 0.0001 between all groups including control were obtained through one-way ANOVA with post-test analysis by Bonferroni’s Multiple Comparison Test indicating significant difference between all groups in pair wise comparison. b Aprepitant added to DMEM 10 % FBS media or MDM cultures at a concentration of 1 μM (0.53 μg/ml) on day 0 and measured on days 0, 1, 2, 3 and 7. Results are presented as mean ± SD for three independent experiments

in vivo = conditions: male, rhesus monkey
Procedure: A pilot study in two groups of three male Rhesus macaques (Macaca mulatta) was conducted to assess the exposure attained following once daily dosing of 80 and 125 mg aprepitant administered orally for 14 days (n = 3 per dose group). The 80 and 125 mg doses correlate with the human doses recommended for CINV patients (125 mg orally 1 h prior to chemotherapy treatment (day 1) and 80 mg orally once daily in the morning on days 2 and 3). On a weight basis these doses represent approximately 8 and 12.5 mg/kg (weight range, 7–12 kg for the rhesus) compared to 1.14 and 1.79 mg/kg human doses (assuming a 70 kg person). […] Blood was collected for dense PK sampling on days 1, 7 and 14 and trough samples were collected prior to dosing on days 3, 5, 7, 11 and 13.
Blood was collected for PK sampling on days 1, 7 and 14 and trough samples were collected prior to dosing on days 3, 5, 7, 11 and 13. Viral loads were assessed at 2 and 4 weeks after infection and monthly thereafter. […] Behavioral data were collected using video cameras installed on walls opposite the caging. Videotaping was scheduled to avoid disruptions in daily feedings, routine husbandry and research procedures. Data were collected pre-infection, 2 and 4 weeks post-infection and monthly thereafter. Videotaped recordings were analyzed using Observer XT® (Noldus IT). Animals were sacrificed and necropsied after 1 year.

[1] = design: species or system Rhesus macaques; conditions: rhesus monkey, in vivo
Procedure: For infectivity studies, eight male rhesus macaques were used. Animals were infected intravenously with 50 ng p27 of SIV. […] Aprepitant (commercial capsule contents) was mixed and co-administered with various food preparations to ensure dosing compliance. Food preparations included peanut butter, marshmallow cream and honey, disguised in non-citrus fruit. While formal stability and delivery experiments were not conducted, pilot bioavailability studies confirmed the robustness of aprepitant exposures following food co-administration. The improved bioavailability with food-based dosing in conjunction with oral aprepitant is consistent with preclinical experiments which project simulated exposures based on the commercial nanosized aprepitant formulation. In this evaluation, in silico model predictions were similar to observed in vivo pharmacokinetic data in the fed state; other studies have shown the benefit of complexation strategies to enhance aprepitant solubility/dissolution [30, 31]. […] Videotaped recordings were analyzed using Observer XT® (Noldus IT). Animals were sacrificed and necropsied after 1 year.

human PBMC = assay: SP dependent cytokine and chemokine production by PBMC, multiplex assay; assay type: cell-based; conditions: aprepitant 10 µM with SP 10 µM, 24 h
Procedure: (§1) For cytokine and PD-1 assessment experiments freshly isolated peripheral blood mononuclear cell (PBMC) purchased from the Human Immunology Core Facility of The University of Pennsylvania School of Medicine (Philadelphia, PA) were cultured in RPMI medium supplemented with 10 % FBS overnight. Some cultures were treated with SP (10 µM) aprepitant (10 µM) or DMSO (0.001 %, vehicle for aprepitant). Cytokine concentrations were measured in supernatants using multiplex assay 24 h after SP/aprepitant treatment (see below). For PD-1 expression SP and aprepitant were added at day 0 and PD-1 expression was monitored daily for up to 8 days using flow cytometry.
Concentrations of pro-inflammatory cytokines and chemokines in supernatants of human PBMC were measured using human Cytokine/Chemokine Magnetic Bead Panel—Premixed 30 Plex, HCYTMAG-60K-PX30 (Millipore, Billerica, MA, USA) as recommended by the manufacturers.
Fig. 5 SP dependent up regulation of cytokine and chemokine production by human PBMC* is inhibited by aprepitant. *Freshly isolated PBMC from normal donors were incubated for 24 h with SP and/or Aprepitant (10 µM each) as indicated. Control cultures were either left untreated of incubated with DMSO (vehicle for aprepitant). Pro-inflammatory markers were measured in supernatants using MILLIPORE Human Cytokine/Chemokine Magnetic Bead Panel.

[2] = tested on: PD-1 expression on CD3+CD4+ cells; assay: PD-1 expression on CD4+ T-cells in PBMC, flow cytometry; assay type: cell-based, human
Procedure: as §1
Fig. 6 Aprepitant blocks SP induced PD-1 expression on CD4+ T-cells. PBMC were treated for 7 days with SP and aprepitant as indicated. PD-1 expression was measured by flow cytometry on CD3+CD4+ cells and expressed as percentage of PD-1 positive cells. a Results from representative experiment are shown. First two columns show gaiting strategy. […] Median (spread): control 14.7 (11.1), SP treated 38.4 (60.6), SP + aprepitant treated 7.8 (6.0) TEXT PRINTED IN THE PICTURE: (a) SP: PD1+ 67.1 | (a) SP + aprepitant: PD1+ 9.53 DOUBTS OF THE COPYIST ABOUT THIS PICTURE: SP + aprepitant, PD1+ 9.53: the sign after PD1 looks like '+' or '−' because it touches the gate line / SP + aprepitant, 9.53: small print, so the digits 9, 5 and 3 are not fully certain / The rows 'no staining' (PD1+ 0.079) and 'control' (PD1+ 11.4) were left out because they are not substances

[3] = 1 μM in DMEM 10 % FBS or MDM cultures, days 0-7
Procedure: A validated, liquid chromatography-tandem mass spectrometry method was used for the quantification of aprepitant plasma concentration in HIV infected animals and tissue culture media. The method utilized a simple sample-preparation procedure of protein precipitation with methanol. Chromatographic separation was performed on a reversed phase C8 column (Hypersil Gold, 50 mm × 2.1 mm, 3 μm) using a mobile phase composed of acetonitrile and water in 0.5 % formic acid through gradient elution. Electro-spray ionization in positive mode was incorporated in the tandem mass spectrometric detection. The lower limit of quantitation of aprepitant in human plasma was 1 ng/mL.
GAG expression in control (non-treated) cultures were designated as 100 %; *p < 0.0001 between all groups including control were obtained through one-way ANOVA with post-test analysis by Bonferroni’s Multiple Comparison Test indicating significant difference between all groups in pair wise comparison. b Aprepitant added to DMEM 10 % FBS media or MDM cultures at a concentration of 1 μM (0.53 μg/ml) on day 0 and measured on days 0, 1, 2, 3 and 7. Results are presented as mean ± SD for three independent experiments

pro-inflammatory markers = tested on: pro-inflammatory markers; design: method as in PMID 25915168; conditions: 375 mg daily, 2 weeks, HIV positive individuals; cited from earlier work
NK1R = tested on: NK1R; design: method as in PMID 12562139, PMID 15121485; conditions: 165 mg dose, PET; cited from earlier work

C[C@@H](O[C@H]1OCCN(Cc2n[nH]c(=O)[nH]2)[C@H]1c1ccc(F)cc1)c1cc(C(F)(F)F)cc(C(F)(F)F)c1 [aprepitant]
IC50 (HIV-1 Bal; Human immunodeficiency virus 1, BAL, Macrophage, read-out: free drug IC50 concentration): ~0.00265 µg/mL | IC50 (HIV-1 Bal; Human immunodeficiency virus 1, BAL, Macrophage, read-out: total IC50 concentration): 2.65 µg/mL | IC50 (HIV-1 Bal; Human immunodeficiency virus 1, Macrophage, 168 h, human MDM, HIV-1 Bal, gag mRNA day 7, total concentration in DMEM 10 % FBS, read-out: IC50 (ED50 in abstract) for inhibition of HIV infection in MDM): ~5 µM | IC90 (HIV-1 Bal; Human immunodeficiency virus 1, Macrophage, human MDM, HIV-1 Bal, total concentration, read-out: IC90 for inhibition of HIV infection in MDM): ~10 µM | Kp (in vivo): 0.0005 to 0.008 | decline in trough exposure between days 13 and 14 (extent of induction) (in vivo): approximately 32.5% | trough plasma concentration reaches steady state (in vivo): ≤ 10 days | systemic and neuropathology, treated versus untreated [1]: no differences | effect on SP induced cytokine and chemokine production (human PBMC): blocked | percentage of PD-1 positive CD4 cells, median (spread) ([2]; SP + aprepitant treated, 7 days, five experiments, control 14.7 (11.1)): 7.8 (6.0) % | effect on SP induced PD-1 expression ([2]; aprepitant with SP): blocked | degradation in culture media [3]: little or no degradation | levels of pro-inflammatory cytokines (G-CSF, MIP-1α, IL-6, IL-8, TNFα) (pro-inflammatory markers): reduced levels; also recorded: decrease; also recorded: significant reduction | sCD163, plasma SP and PD-1 expression on CD4 T-cells (pro-inflammatory markers): decrease; also recorded: reduction | receptor occupancy (NK1R): 97–99%
